Measured values from patent publication US20240165164A1, “STEM CELLS FOR USE IN REDUCING THE IMMUNE RESPONSE FOLLOWING ORGAN TRANSPLANTATION” (Amniotics AB, priority 2021, published 2024).

Key:
[1] = test system: human Peripheral Blood Mononuclear Cells (PBMCs); assay: PBMC co-culture: cell composition after 24 hours of activation (FACS analysis)
Method: (§1) Freshly isolated human PBMCs, pooled from three donors, were activated with anti-CD3/anti-CD28 at 10 μg/ml and 5 μg/ml respectively in presence of MSCs ex vivo for 24 or 72 hours. Following activation, cells were analysed for effects on cellular composition after 24 hours and for effects on cellular composition and cell proliferation using CFSE after 72 hours. In addition, supernatants collected after 24 hours of activation were analysed for cytokine levels using Luminex.
(§2) Peripheral Blood Mononuclear Cells (PBMCs) were isolated from leucocyte concentrate from three different donors (acquired from Blodcentralen, Lunds Universitetssjukhus, Lund, Sweden) through gradient centrifugation at 400×g for 40 minutes using Ficoll. Red blood cells (RBCs) were lysed using BD Pharmlyse buffer 10× diluted in milliQ water for 3 minutes at room temperature (RT). Cells were washed and the isolated PBMCs were pooled. Cell concentration was determined using a Scepter cell counter (Millipore Merck, MA. USA). Cells were diluted to 1×10^7 cells/ml in PBS. Pooled PBMCs were split into 2 different tubes. Cells in tube 1 was stained with CFSE at 5 µM for 5 minutes (dark, RT). CFSE stained cells were washed with an equal volume of FBS to stop the reaction and washed again with PBS. Cells in tube two was left in PBS.
(§3) MSCs (donor 1, donor 2, donor 3, and AD-MSC control cells) were provided in 8 different tubes, two for each cell type (in different medias (M3 and M4). All cells (PBMCs and MSCs) were diluted in the two different cell culture media (M3 and M4) to a final concentration of 2*10^6 cells/ml. Media was supplemented with anti-CD28 at 5 μg/ml. Cells were added to anti-CD3 (1 μg/well, 100 μl/well) coated U bottom cell culture plates according to the layout below, 200 μl/well in different PBMC:MSC ratios (1:10, 1:5, 1:2.5, 1:0 and 0:1) with a total amount of cells at 4*10^5 cells/well.
(§4) When plating controls, cells were spun down and diluted in M3 or M4 at 4*10^6 cells/ml, with a total amount of cells at 4*10^5 cells/well. 100 μl PBMCs were added per well. […] Medium was added to unstimulated control wells (700 μl/well). Cells were incubated for 24 or 72 hours at 37° C., 5% CO2. See also FIG. 28.
Following 24 hours of incubation, cells in FACS/Luminex plates were stained with antibodies detecting CD73, CD4, CD8, CD80, CD206, CD163 and PD-1 in staining buffer (PBS supplemented with 1% BSA). Briefly, cells were transferred to V bottom plates and centrifuged at 360×g for 2 min. Supernatant was transferred to a storage plate and put in −20° C. until analysis using Luminex. Cells were washed in PBS, centrifuged at 360×g for 2 min at 4° C. Supernatant was flicked off and antibodies against surface markers were added. Cells were incubated at +4° C. for 20 minutes (dark). After incubation, cells were washed 1× in PBS, centrifuged at 360×g for 2 min at 4° C. Cells were resuspended in PBS and acquired using the Attune Nxt flow cytometer. Compensation was performed using beads—AbC Total Compensation capture beads and negative beads. Since compensation was done using beads, FSC and SSC were changed before analysing samples and adjusted to cells. Lasers were not changed after compensation. 150 μl was analysed from each sample.

[2] = test system: human Peripheral Blood Mononuclear Cells (PBMCs); assay: PBMC co-culture: proliferation and cell composition after 72 hours of activation (FACS analysis after CFSE labeling)
Method: as §1, §2, §3, §4
After 72 hours of incubation, CFSE stained cells were stained with CD4, CD8, CD80, CD206 and CD163 in staining buffer. Briefly, cells were transferred to V bottom plates, centrifuged at 360×g for 2 min. Cells were washed in PBS, centrifuged at 360×g for 2 min at 4° C. Supernatant was flicked off and surface markers were added. Cells were incubated at +4° C. for 20 minutes. After incubation, cells were washed 1× in PBS, centrifuged at 360×g for 2 min at 4° C. Cells were resuspended in PBS and acquired using the Attune Nxt flow cytometer. Compensation was performed using beads—AbC Total Compensation capture beads and negative beads for surface markers. For CFSE compensation, newly CFSE stained cells were used. Since compensation was done using both beads and cells, FSC and SSC were changed and adjusted to beads or cells. Lasers were not changed after compensation.
Graphs were performed using Prism 8 for Mac OS X (GraphPad Software, San Diego, CA, USA). Results are presented as mean values±SEM, if not otherwise stated. Dot plots were acquired from analysis using FlowJo v10.6.1 for Mac (BD, New Jersey, USA). The inhibitory effect of MSCs on PBMC proliferation was calculated according to the two formulas below: […]

[3] = test system: human Peripheral Blood Mononuclear Cells (PBMCs); assay: PBMC co-culture: cytokine analysis after 24 hours of activation (Luminex); format: cell-based
Method: 100 μl PBMCs were added per well. […] See also FIG. 28.
Supernatant (24 hours incubation) was analysed for cytokines using the 12-plex LXSAHM-12 Luminex kit. All reagents, standard and samples were prepared at room temperature and according to manufacturer's instruction. Briefly, 50 μl of standard or sample was added to wells. Microparticles were added to samples and standard and samples were incubated for 2 hours at room temperature on a horizontal orbital shaker (800 rpm). Plate was washed 3× in washing buffer using a magnetic plate. Biotin-antibody was added and incubated dark for 1 hour at room temperature on a horizontal orbital shaker (800 rpm). Plate was washed 3× in washing buffer using a magnetic plate. Streptavidin-PE was added to each well and incubated dark at room temperature on a horizontal orbital shaker (800 rpm) for 30 minutes. Plate was washed 3× in washing buffer using a magnetic plate. Microparticles were resuspended in 100 μl washing buffer, incubated for 2 minutes on a horizontal orbital shaker (800 rpm). Samples were analysed on a Bio-Rad Luminex analyzer.

[4] = CsA 10 μg/ml, Prednisolone 125 nM
[5] = stimulated PBMCs, media 3, MSCs at all ratios, CsA 10 μg/ml, Prednisolone 125 nM

SMILES: C[C@]12C=CC(=O)C=C1CC[C@@H]1[C@@H]2[C@@H](O)C[C@@]2(C)[C@H]1CC[C@]2(O)C(=O)CO [Prednisolone]
- M2 macrophage expression [1, 4]: no effect
- T cell activation [1, 4]: only slightly inhibits
- expression level of M1 macrophages [1, 4]: no effect
- macrophage cell composition ([1]; Prednisolone 125 nM): did not have an effect
- T helper cells (% CD4+ lymphocytes or MFI of CD4+ lymphocytes) ([1]; aCD3/aCD28 activated PBMCs, media 3, unsorted MSCs at PBMC:MSC 1:2.5, 1:5, 1:10, Prednisolone 125 nM, vs control): higher levels
- M1 expression levels ([2]; 72 hours): no effect
- M1 proliferation (CFSE) ([2]; 72 hours): No effect
- M2 expression levels ([2]; 72 hours): no effect
- M2 proliferation (CFSE) ([2]; 72 hours): No effect
- T helper cells (% CD4+ among T cells) ([2]; 72 hours of incubation, unsorted MSCs co-culture, CsA 10 μg/ml, Prednisolone 125 nM): no effect
- the other analysed cytokines, levels in supernatant ([3]; 12-plex cytokines not listed as inhibited): No inhibitory effect
- IL-6 levels in supernatant [3, 4]: inhibits
- IL12/IL23p40 levels in supernatant [3, 5]: inhibits
- TNF-α levels in supernatant [3, 5]: inhibits
- HGF levels in supernatant ([3]; stimulated PBMCs, media 3, PBMC:MSC 1:2.5, 1:5, 1:10, CsA 10 μg/ml, Prednisolone 125 nM): inhibits
